Publication PMC3723849, “Evaluation of Phage Display Discovered Peptides as Ligands for Prostate-Specific Membrane Antigen (PSMA)” (PLoS ONE, 2013)
Residues, ends and D or L forms follow the SMILES beside them. *: point of attachment. Acm = CC(=O)NC*

Columns and labels:
PSMA-His6 [1] = target: T1, PSMA-His6 (Homo sapiens, UniProt Q04609); test: PSMA enzyme assay (NAAG hydrolysis, Amplex Red glutamate detection); assay type: biochemical; design: A 15-mer library was screened against the soluble ectodomain of PSMA; purchased R&D Systems
Procedure: The glutamic acid/glutamate released from the natural substrate of PSMA, NAAG (N-acetylaspartylglutamate), was analyzed by the fluorescence-based Amplex Red Glutamic Acid/Glutamate Oxidase assay kit (Invitrogen) as previously described, [22], [32], [33]. […] Then NAAG (4 µM, 10 µL) was added to the peptide/PSMA-His6 mixture (37°C, 30 min). The enzymatic reaction was quenched (500 mM NaH2PO4/Na2HPO4, pH 7.4, 10 µL). […] Data was analyzed by non-linear regression with GraphPad Prism.

PSMA-His6 [2] = target: T1, PSMA-His6; test: AlphaScreen competition binding assay
Procedure: The AlphaScreen competition binding assay was performed based on published procedures [29], [30], [31]. […] The mixture was incubated (ambient temperature, 1 h), and then nickel chelate acceptor beads (5 µL, 120 µg/mL) were added followed by a second incubation (dark, ambient temperature, 1 h). Streptavidin donor beads (5 µL, 120 µg/mL) were added for a final incubation (dark, ambient temperature, 30 m). […] Data was analyzed by non-linear regression with GraphPad Prism.
Only when the peptide binds to PSMA (thus bringing the two beads close to each other), can the AlphaScreen (emission) signal be generated, in which case, the singlet oxygen generated by the excitation at 680 nm on the donor bead can transfer energy to the adjacent acceptor bead and subsequently produce an emission signal at 520–620 nm.

[3] = NAAG substrate, PSMA-His6, 37°C, read-out: Enzyme inhibition (footnote symbols: no inhibition observed at the stated concentration)
[4] = highest concentration tested without inhibition, limited by solubility of the peptide, read-out: PSMA enzymatic reaction: no inhibition at the stated concentration

T1 sequence (Q04609 44-750 limits assumed): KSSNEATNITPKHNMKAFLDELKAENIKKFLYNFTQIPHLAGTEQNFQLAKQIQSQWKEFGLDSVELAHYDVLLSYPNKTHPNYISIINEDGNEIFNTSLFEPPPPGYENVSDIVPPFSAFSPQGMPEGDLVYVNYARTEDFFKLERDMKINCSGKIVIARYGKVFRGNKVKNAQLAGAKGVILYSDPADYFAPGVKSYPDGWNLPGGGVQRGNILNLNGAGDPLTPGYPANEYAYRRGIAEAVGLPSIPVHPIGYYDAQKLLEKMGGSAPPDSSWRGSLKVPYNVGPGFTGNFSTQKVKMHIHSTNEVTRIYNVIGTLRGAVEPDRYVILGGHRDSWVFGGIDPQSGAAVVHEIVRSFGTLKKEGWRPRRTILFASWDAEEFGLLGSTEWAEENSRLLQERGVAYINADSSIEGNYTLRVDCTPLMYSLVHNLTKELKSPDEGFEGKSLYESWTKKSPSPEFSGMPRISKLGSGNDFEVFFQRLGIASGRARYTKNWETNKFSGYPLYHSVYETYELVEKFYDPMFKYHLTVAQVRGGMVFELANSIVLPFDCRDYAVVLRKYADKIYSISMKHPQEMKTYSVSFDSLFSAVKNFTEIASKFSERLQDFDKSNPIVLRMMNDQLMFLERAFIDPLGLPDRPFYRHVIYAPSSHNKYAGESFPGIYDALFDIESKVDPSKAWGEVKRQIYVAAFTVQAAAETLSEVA

## CC(C)[C@H](NC(=O)[C@H](CO)NC(=O)[C@H](Cc1ccccc1)NC(=O)[C@H](CO)NC(=O)[C@H](Cc1c[nH]cn1)NC(=O)[C@@H](N)CO)C(=O)NCC(=O)N[C@@H](CO)C(=O)NCC(=O)N[C@@H](CC(=O)O)C(=O)N[C@@H](Cc1c[nH]cn1)C(=O)N[C@@H](CO)C(=O)N1CCC[C@H]1C(=O)N[C@@H](Cc1ccccc1)C(=O)N[C@H](C(=O)NCC(=O)NCC(=O)NCC(=O)N[C@@H](CO)C(=O)NCCOCCOCCOCCOCCOCCOCCC(=O)N[C@@H](CSC1CC(=O)N(CCC(=O)NCCCC[C@H](NC(=O)CCN2C(=O)CC(SC[C@H](NC(=O)CCOCCOCCOCCOCCOCCOCCNC(=O)[C@H](CO)NC(=O)CNC(=O)CNC(=O)CNC(=O)[C@@H](NC(=O)[C@H](Cc3ccccc3)NC(=O)[C@@H]3CCCN3C(=O)[C@H](CO)NC(=O)[C@H](Cc3c[nH]cn3)NC(=O)[C@H](CC(=O)O)NC(=O)CNC(=O)[C@H](CO)NC(=O)CNC(=O)[C@@H](NC(=O)[C@H](CO)NC(=O)[C@H](Cc3ccccc3)NC(=O)[C@H](CO)NC(=O)[C@H](Cc3c[nH]cn3)NC(=O)[C@@H](N)CO)C(C)C)[C@@H](C)O)C(N)=O)C2=O)C(=O)NCCCC[C@H](NC(=O)[C@H](CCCCNC(=O)CCN2C(=O)CC(SC[C@H](NC(=O)CCOCCOCCOCCOCCOCCOCCNC(=O)[C@H](CO)NC(=O)CNC(=O)CNC(=O)CNC(=O)[C@@H](NC(=O)[C@H](Cc3ccccc3)NC(=O)[C@@H]3CCCN3C(=O)[C@H](CO)NC(=O)[C@H](Cc3c[nH]cn3)NC(=O)[C@H](CC(=O)O)NC(=O)CNC(=O)[C@H](CO)NC(=O)CNC(=O)[C@@H](NC(=O)[C@H](CO)NC(=O)[C@H](Cc3ccccc3)NC(=O)[C@H](CO)NC(=O)[C@H](Cc3c[nH]cn3)NC(=O)[C@@H](N)CO)C(C)C)[C@@H](C)O)C(N)=O)C2=O)NC(=O)CCN2C(=O)CC(SC[C@H](NC(=O)CCOCCOCCOCCOCCOCCOCCNC(=O)[C@H](CO)NC(=O)CNC(=O)CNC(=O)CNC(=O)[C@@H](NC(=O)[C@H](Cc3ccccc3)NC(=O)[C@@H]3CCCN3C(=O)[C@H](CO)NC(=O)[C@H](Cc3c[nH]cn3)NC(=O)[C@H](CC(=O)O)NC(=O)CNC(=O)[C@H](CO)NC(=O)CNC(=O)[C@@H](NC(=O)[C@H](CO)NC(=O)[C@H](Cc3ccccc3)NC(=O)[C@H](CO)NC(=O)[C@H](Cc3c[nH]cn3)NC(=O)[C@@H](N)CO)C(C)C)[C@@H](C)O)C(N)=O)C2=O)C(=O)NCCC(=O)O)C1=O)C(N)=O)[C@@H](C)O (stereo partly drawn) [(562)4]
PSMA-His6 [1]; against 1 µM NAAG, peptide pre-incubated with PSMA-His6 37°C 30 min, reaction 37°C 30 min, TBS, fluorescence Ex 530/Em 590, read-out: Enzyme inhibition IC50
  IC50: 311 µM

## CC(=O)NCSC[C@H](NC(=O)[C@H](CO)NC(=O)[C@H](Cc1ccccc1)NC(=O)[C@H](Cc1ccccc1)NC(=O)[C@H](CO)NC(=O)[C@@H](N)CC(C)C)C(=O)N[C@@H](Cc1c[nH]c2ccccc12)C(=O)N[C@@H](CC(C)C)C(=O)N[C@@H](CCCNC(=N)N)C(=O)N[C@@H](CCCNC(=N)N)C(=O)N[C@@H](CO)C(=O)N[C@@H](Cc1ccccc1)C(=O)N[C@@H](CO)C(=O)N[C@@H](CC(C)C)C(=O)N[C@H](C(N)=O)[C@@H](C)O [Peptide 564] (H-LSFFSC(Acm)WLRRSFSLT-NH2)
PSMA-His6 [1]; [3]
  IC50: > 55.5 µM
PSMA-His6 [1]; [4]
  IC50: > 55.5 µM

## CC[C@H](C)[C@H](NC(=O)[C@H](CSCNC(C)=O)NC(=O)[C@H](CCCNC(=N)N)NC(=O)[C@H](CCSC)NC(=O)[C@H](CC(C)C)NC(=O)[C@H](Cc1ccccc1)NC(=O)[C@H](CC(C)C)NC(=O)[C@H](CC(C)C)NC(=O)[C@H](Cc1ccccc1)NC(=O)[C@H](CCSC)NC(=O)[C@H](CCCNC(=N)N)NC(=O)[C@H](C)N)C(=O)NCC(=O)N[C@@H](CSCNC(C)=O)C(=O)N[C@@H](Cc1ccc(O)cc1)C(N)=O [Peptide 565] (H-ARMFLLFLMRC(Acm)IGC(Acm)Y-NH2; N-terminus assumed)
PSMA-His6 [2]
  IC50: > 4.83 µM
PSMA-His6 [1]; [3]
  IC50: > 14.5 µM
PSMA-His6 [1]; [4]
  IC50: > 14.5 µM
